Data from US20070213359A1 (ACADIA Pharmaceuticals Inc., priority 2005, published 2007).
Read-outs that look alike come from different tables or passages of the source.

Molecular target: Ghrelin receptor (Homo sapiens, UniProt Q92847)
Experiment: Receptor Selection and Amplification Technology (R-SAT) assay
Type: cell-based
Design: expressed in transfected cells; host or cells: NIH3T3
Conditions: for Emax: read-out: RSAT Eff(%)
[1] = […], '—' not defined (nd used separately), read-out: RSAT pIC50 (converted)
[2] = negative logarithm of ligand concentration causing 50% inhibition of constitutive receptor response, transfected NIH3T3 cells, '—' not defined (nd used separately), read-out: RSAT pIC50 (converted)
[3] = percent inhibition at saturating ligand, normalized to reference ligand Substance P analog = 100%

Ghrelin receptor, sequence (Q92847 whole entry): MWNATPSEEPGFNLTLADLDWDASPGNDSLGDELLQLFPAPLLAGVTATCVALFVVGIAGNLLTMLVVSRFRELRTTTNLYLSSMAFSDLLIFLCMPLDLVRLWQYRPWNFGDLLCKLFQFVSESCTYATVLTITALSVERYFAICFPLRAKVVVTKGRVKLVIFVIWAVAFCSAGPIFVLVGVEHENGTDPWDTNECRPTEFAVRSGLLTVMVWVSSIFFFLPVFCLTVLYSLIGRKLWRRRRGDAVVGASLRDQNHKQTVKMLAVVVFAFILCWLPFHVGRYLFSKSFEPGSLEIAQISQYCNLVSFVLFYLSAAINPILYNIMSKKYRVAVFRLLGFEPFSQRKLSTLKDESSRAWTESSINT

Structure (SMILES)	Emax [%]	IC50 [2] [nM]	Emax [3] [%]	other results
COc1cccc2c(C(=O)NCC(C)C)cn(CCCNCCOc3ccccc3)c12	118	–	–	IC50 [1]: 158 nM
CC(=O)c1cn(CCCN2C3CCC2CC(Oc2ccc(Cl)cc2)C3)c2cc(Br)ccc12 (centres unmarked)	–	10000	74	–
COc1cccc2c(C(=O)C3CC3)cn(CCCNCCOc3ccccc3)c12	83	–	–	IC50 [1]: 15.8 nM
COc1cccc2c(C(=O)NCc3cccc(C)c3)cn(CCCN3C4CCC3CC(Oc3ccc(F)cc3)C4)c12 (centres unmarked)	–	15.8	–	RSAT Eff(%) [3]: 112%
CCCCC1CCN(CC(C)Cn2c(=O)sc3ccccc32)CC1 (centres unmarked)	–	2000	84	–
COc1ccc2c(C(C)=O)cn(CCCN3CCC(Oc4ccccc4Cl)CC3)c2c1	–	251	88	–
CC(=O)c1cn(CCN2CCC(Cc3ccccc3)CC2)c2ccccc12	–	398	77	–
COc1cccc2c(C(=O)c3ccccc3)cn(CCCN3CCCC(Oc4ccc(Cl)cc4)C3)c12 (centres unmarked)	48	–	–	–
COc1cccc2c(C(C)=O)cn(CC(C)CN3CCC(c4nc(-c5cccnc5)no4)CC3)c12 (centres unmarked)	83	–	–	–
CC(=O)c1cn(CCCN2CCCN(Cc3ccccc3Cl)CC2)c2c(C)cccc12	–	1.26	111	–
COc1ccc2[nH]c3c(c2c1)CCN(CCCn1cc(C(=O)CC(C)C)c2ccccc21)C3	123	1000	–	–
CCc1cccc2c(C(C)=O)cn(CCCN3CCC(c4nc(-c5ccncc5)no4)CC3)c12	–	39.8	121	–
COc1cccc2c(C#N)cn(CCCN3CCN(CCOc4ccc(Cl)cc4)CC3)c12	–	–	-23	–
CC(=O)c1cn(CCCN2CCC(Oc3cccc(Cl)c3)CC2)c2c(C)cccc12	–	10	96	–
COc1ccccc1C1CCN(CCCn2cc(C(C)=O)c3ccccc32)CC1 [drawing 533]	–	316	109	–
CC(=O)CCc1cn(CCCN2CCN(C(C)c3ccccc3)CC2)c2ccccc12 (centres unmarked)	–	2000	46	–
CC(=O)c1cn(CCCN2CCN(CCOc3ccc(Cl)c4ccccc34)CC2)c2c(C#N)cccc12	53	–	–	–
O=C(c1cn(CCCN2CCN(CCOc3ccccc3)CC2)c2ncccc12)C(F)(F)F	–	–	27	–
O=C(NCc1cccc(Cl)c1)c1cn(CCCN2CCC(Oc3ccc(F)cc3)CC2)c2ccccc12.O=C(O)C(=O)O [drawing 596]	–	–	–	RSAT Eff(%): 142%
CCC(=O)c1cn(CCCN2CCC(Oc3ccc(F)cc3)CC2)c2ccccc12	–	794	90	–
COc1cccc2c(C(C)=O)cn(CCCN3CCC(N(C)C(C)=O)C3)c12 (centres unmarked)	–	2510	60	–
COc1cccc2c(C(=O)c3ccccc3)cn(CCCNC3Cc4ccccc4C3)c12	93	–	–	IC50 [1]: 316 nM
COc1cccc2c(C(=O)NCC(C)C)cn(CCCN3CCC(c4nc(-c5cccnc5)no4)CC3)c12	93	–	–	IC50 [1]: 63.1 nM
CCCCC[C@H]1C[C@H]2CC[C@@H](C1)N2CCCn1cc(C(C)=O)c2cccc(C)c21	–	251	105	–
O=C(c1cn(CCCN2CCCN(Cc3ccc(F)cc3)CC2)c2ncccc12)C(F)(F)F	–	100	83	–
COc1cccc2c(C(=O)NCc3cccc(C)c3)cn(CCCN3CCC(N4C(=O)Cc5ccccc54)CC3)c12	–	–	–	RSAT Eff(%): 43%; IC50 [1]: 2000 nM
CC(=O)c1cn(CCCNCCOc2ccccc2)c2c(C#N)cccc12	11	–	–	–

Structure (SMILES)	Emax [%]	IC50 [2] [nM]	Emax [3] [%]	other results
CCC(=O)c1cn(CCCN2CCC(Cc3ccccc3)CC2)c2ccccc12	–	1580	109	–
CC(=O)c1cn(CCCN2CCCC(Oc3ccc(Cl)cc3)C2)c2c(C)cccc12 (centres unmarked)	-2	–	–	–
O=C(c1cn(CCCN2CCC(Oc3cccc(Cl)c3)CC2)c2ncccc12)C(F)(F)F	–	–	23	–
CCOC(=O)C1CCN(CCCn2cc(C(=O)CC)c3ccccc32)CC1	–	6310	39	–
COc1cccc2c(C#N)cn(CCCN3CCC(c4nc(-c5ccncc5)no4)CC3)c12	–	–	40	–
CCCCC1CCN(CC(C)Cn2cc(C(C)=O)c3ccccc32)CC1 (centres unmarked)	–	2000	76	–
CC(=O)c1cn(CCCN2C3CCC2CC(CCc2ccc(Cl)cc2)C3)c2c(C)cccc12 (centres unmarked)	50	100	–	–
CC(=O)c1cn(CCCN2CCN(CCOc3ccc(Cl)cc3)CC2)c2ncccc12	–	–	62	–
COc1cccc2c(C(=O)Cc3ccccc3)cn(CCCN3CCC(c4nc(-c5cccnc5)no4)CC3)c12	88	–	–	IC50 (RSAT pIC50): 20 nM
CC(=O)c1cn(CC(O)CN2CCC(Oc3ccc(Cl)cc3)CC2)c2ccccc12 (centres unmarked)	–	3160	73	–
COc1ccccc1C1CCN(CCCn2cc(C(=O)NCc3cccc(C)c3)c3cccc(OC)c32)CC1	127	–	–	IC50 [1]: 126 nM
CC(C)CC(=O)c1cn(CCCN2CCC(Oc3ccc(Cl)cc3)CC2)c2ccccc12	–	316	112	–
CC(=O)c1cn(CCCCN2C3CCC2CC(O)(c2ccc(F)cc2)C3)c2ccccc12 (centres unmarked)	2	–	–	–
COc1cccc2c(C#N)cn(CCCN3CCC(CCOc4ccc(Cl)cc4)CC3)c12	–	–	-3	–
CC(=O)c1c(C)n(CCCN2CCC(c3nc(-c4cccnc4)no3)CC2)c2c(Br)cccc12	12	–	–	–
CC(=O)c1cn(CCCN2CCCC(Cc3ccccc3Cl)C2)c2c(C)cccc12 (centres unmarked)	38	–	–	–
COc1cccc2c(C(=O)C3CC3)cn(CCCN3CCC4(CC3)CC(=O)c3ccccc3O4)c12	106	–	–	IC50 [1]: 3.98 nM
COc1cccc2c(C(=O)NCc3cccc(Cl)c3)cn(CCCN3C4CCC3CC(CC(=O)c3ccc(Cl)cc3)C4)c12 (centres unmarked)	76	–	–	IC50 [1]: 316 nM
CC(=O)c1cn(CCCCN2CCC(O)(Cc3ccccc3)CC2)c2ccccc12	24	–	–	–
COc1cccc2c(C(=O)c3ccccc3)cn(CCCN3CCC(c4nc(-c5cccnc5)no4)CC3)c12	80	–	–	IC50 [1]: 39.8 nM
CCCOC1CCN(CC(C)Cn2cc(C(C)=O)c3ccccc32)CC1 (centres unmarked)	–	631	74	–
CC(=O)c1cn(CCCN2CCC(Oc3ccccc3Cl)CC2)c2ccc(Br)cc12	–	15800	74	–
CC(=O)c1cn(CCCN2C3CCC2CC(Oc2ccccc2Cl)C3)c2c(C)cccc12 (centres unmarked)	–	794	101	–
CCCCC(=O)c1cn(CCCN2CCC3c4cc(OC)ccc4NC3C2)c2ccc(OC)cc12 (centres unmarked)	–	126	91	–
CC(=O)c1cn(CCCN2CCC(N3C(=O)Cc4ccccc43)CC2)c2c(Cl)cccc12	–	–	–	RSAT Eff(%): 28%
CC(=O)c1cn(CCCN2CCN(Cc3ccc(Cl)cc3Cl)CC2)c2c(C#N)cccc12	–	15.8	92	–
CC(=O)c1cn(CCCN2CCN(c3nc(-c4cccnc4)no3)CC2)c2c(C)cccc12	110	–	–	IC50 [1]: 200 nM

Structure (SMILES)	Emax [%]	IC50 [2] [nM]	Emax [3] [%]	other results
CCc1cccc2c(C(C)=O)cn(CCCN3CCN(CCOc4ccccc4)CC3)c12	–	39.8	110	–
CC(=O)c1cn(CCCNC2Cc3ccccc3C2)c2c(C)cccc12	70	–	–	IC50 [1]: 158 nM
COc1ccc2c(c1)c(C(C)=O)cn2CCCN1C2CCC1CC(Oc1ccc(Cl)cc1)C2 (centres unmarked)	–	1260	105	–
COc1cccc2c(C(=O)NCC(C)C)cn(CCCN3CCC(C(=O)c4ccccc4)CC3)c12	114	–	–	IC50 [1]: 79.4 nM
CC(=O)c1cn(CCCNC2Cc3ccccc3C2)c2c(Cl)cccc12	–	6310	96	–
CC(=O)c1c(C)n(CCCN2CCC(c3nc(-c4ccncc4)no3)CC2)c2c(Br)cccc12	25	–	–	–
CC(=O)c1cn(CCCN2CCC(c3nc(-c4ccccc4)no3)CC2)c2c(Br)cccc12	–	501	69	–
CC(=O)c1cn(CCCN2CCCN(CCc3ccccc3)CC2)c2ncccc12	–	251	84	–
COc1cccc2c(C(=O)NCc3cccc(C)c3)cn(CCCN3CCC4(CC3)CC(=O)c3ccccc3O4)c12	63	–	–	IC50 [1]: 158 nM
CC(=O)c1cn(CCCN2CCC3(CC2)CC(=O)c2ccccc2O3)c2c(Cl)cccc12	40	–	–	–
CC(=O)c1cn(CCCN2CCCC(Oc3ccc(Cl)cc3)C2)c2c(Cl)cccc12 (centres unmarked)	7	–	–	–
CC(=O)c1cn(CCCN2CCC(Oc3ccccc3Cl)CC2)c2c(Cl)cccc12	–	251	97	–
CC(=O)c1c(C)n(CCCN2CCCC(Cc3ccccc3Cl)C2)c2c(Br)cccc12 (centres unmarked)	5	–	–	–
CC(=O)c1cn(CC(C)CN2CCC(Oc3ccc(F)cc3)CC2)c2ccccc12 (centres unmarked)	–	501	98	–
COc1cccc2c(C(=O)c3ccccc3)cn(CCCN3C4CCC3CC(CC(=O)c3ccc(Cl)cc3)C4)c12 (centres unmarked)	143	–	–	IC50 [1]: 251 nM
COc1ccc2[nH]c3c(c2c1)CCN(CCCn1cc(C(C)=O)c2ccccc21)C3	–	–	76	IC50 [1]: 794 nM
COc1cccc2c(C(=O)NCC(C)C)cn(CCCNC3Cc4ccccc4C3)c12	102	–	–	IC50 [1]: 31.6 nM
CC(=O)c1c(C)n(CCCN2CCCC(Oc3ccc(Cl)cc3)C2)c2c(Br)cccc12 (centres unmarked)	24	–	–	–
CC(=O)c1cn(CCCN2CCC(Oc3ccc(F)cc3)CC2)c2ccc(Br)cc12	–	158	75	–
COc1cccc2c(C(=O)c3ccccc3)cn(CCCN3CCCC(Cc4ccccc4Cl)C3)c12 (centres unmarked)	82	–	–	IC50 [1]: 63.1 nM
CC(=O)c1cn(CCCN2C3CCC2CC(CC(=O)c2ccc(Cl)cc2)C3)c2c(Cl)cccc12 (centres unmarked)	–	501	41	–
COc1ccc2[nH]c3c(c2c1)CCN(CCCn1cc(C(C)=O)c2ccc(OC)cc21)C3	–	–	69	IC50 [1]: 794 nM
CC(C)CC(=O)c1cn(CCCN2CCC(Oc3ccccc3Cl)CC2)c2ccccc12	–	1580	96	–
O=C(c1cn(CCCN2CCC(Oc3ccccc3Cl)CC2)c2ccccc12)C(F)(F)F	–	2000	81	–
O=C(c1cn(CCCN2CCCC(Cc3ccccc3Cl)C2)c2ncccc12)C(F)(F)F (centres unmarked)	–	–	27	–
COc1cccc2c(C(=O)NCc3cccc(Cl)c3)cn(CCCN3CCC(Oc4ccc(F)cc4)CC3)c12	106	–	–	IC50 [1]: 316 nM
